Results taken from patent US20230322717A1, “SOLID FORM OF PYRAZINE SUBSTITUTED NICOTINAMIDE, AND PREPARATION AND USE THEREOF” (Shenzhen TargetRx, Inc., priority 2020, published 2023).
≈ marks a conversion by molar mass, not a printed value.

Tests used:
Assay type in all cases: physicochemical
[1] = Dissolution study of compound A tablets (solubilizer and glidant study)
[2] = Dynamic moisture adsorption and desorption analysis (DVS)
Method: The instrument model used for dynamic moisture adsorption and desorption analysis was IGA Sorp (Hidentity Isochema). The samples were measured in a gradient mode with a moisture range of 0% to 90%, wherein the humidity increment of each gradient was 10%.

[3] = Cooling crystallization: solubility of the crystal form I of compound A in heated solvents; conditions: organic solvent or mixture, thermodynamic from solid
Method: About 30 mg of the crystal form I of compound A was added to different solvents and heated until dissolved. The resulting solution was then slowly cooled to room temperature. PLM and XRPD tests were performed on the resulting solid crystal forms.

[4] = Solubility study of the starting material (the crystal form I of compound A) in different solvents; conditions: in tetrahydrofuran, acetone, 2-butanone, acetonitrile and ethyl acetate
Method: About 2 mg of the starting material was weighed and added into a sample bottle, and different solvents were added respectively, until the starting material was dissolved.

[5] = Stability study of the crystal form I of compound A and the crystal form I of compound A p-toluenesulfonate (HPLC, XRPD); conditions: 7 days at 40° C./75% RH and 60° C.
Method: A certain amount of samples of the crystal form I of compound A and the crystal form I of compound A p-toluenesulfonate (Batch No.: PTSA-A1) were placed in a stability test chamber, and kept at 40° C./75%RH and 60° C. for 7 days, respectively. The samples were tested by HPLC and XRPD at various time points.

[6] = Solubility study in SGF, FaSSIF and FeSSIF (HPLC of filtrate, XRPD of solid)
Method: The solubilities of the crystal form I of compound A and the crystal form I of compound A p-toluenesulfonate in SGF (simulated gastric fluid), FaSSIF (fasted state simulated intestinal fluid) and FeSSIF (fed state simulated intestinal fluid) were studied.
The solubilities of samples in SGF, FaSSIF and FeSSIF at 37° C. for 24 hours were determined. 40 mg of the sample was placed in a sample bottle, and 1.5 mL of solvent was added. The mixture was mixed well, and shaken on a shaker at 200 rpm for 24 hours. The suspension was filtered at 0.5, 2 and 24 hours. The filtrate was analyzed by HPLC, and the solid was tested by XRPD.

[7] = Heating of the crystal form by DSC (solvent removal); conditions: heated to 150° C. by DSC
Method: The instrument model for differential scanning calorimetry analysis was DSC Q200 or Discovery DSC 250 (TA, USA). Samples were accurately weighed and placed in a punctured sample pot for DSC, and the exact mass of the sample was recorded. The samples were heated to the final temperature (e.g. 300° C. or 350° C.) at a ramp rate of 10° C./min.
The collected crystal form I of compound A was subjected to DSC analysis by General method 4. […] The crystal form I of compound A was heated to 150° C. by DSC and then the solvent was removed.

O=C(Nc1ccc(OC(F)(F)Cl)cc1)c1cnc(N2CC[C@@H](F)C2)c(-c2cnccn2)c1 [compound A, (R)-N-(4-(chlorodifluoromethoxy)phenyl)-6-(3-fluoropyrrolidin-1-yl)-5-(pyrazin-2-yl)nicotinamide]
dissolution of compound A in the formulation ([1]; colloidal silica 200 (glidant) added): improved | dissolution of compound A in the formulation ([1]; increasing amount of sodium lauryl sulfate (solubilizer)): decreased

O=C(Nc1ccc(OC(F)(F)Cl)cc1)c1cnc(N2CC[C@@H](F)C2)c(-c2cnccn2)c1 [crystal form I of compound A, (R)-N-(4-(chlorodifluoromethoxy)phenyl)-6-(3-fluoropyrrolidin-1-yl)-5-(pyrazin-2-yl)nicotinamide]
water absorption ([2]; 0-60%RH): about 0.2% | water absorption ([2]; 0-80%RH): about 0.7% | water absorption ([2]; 0-90%RH): about 1.3% | hygroscopicity (DVS) ([2]; moisture range 0% to 90%): slightly hygroscopic | Solubility ([3]; ACN, became clear at 50° C.): 298 mg/mL (≈ 642 mM) | Solubility ([3]; Acetone, became clear at 50° C.): 150 mg/mL (≈ 324 mM) | Solubility ([3]; Isobutanol, became clear at 70° C.): 10.1 mg/mL (≈ 21.8 mM) | Solubility ([3]; MeOH, became clear at 50° C.): 34.1 mg/mL (≈ 73.5 mM) | solubility in solvents (in words) [4]: good solubility | crystal form stability (XRPD) [5]: remained unchanged | solubility compared with the other form ([6]; FeSSIF vehicle, 0.5 and 2 hours, 37° C.): higher solubility than that of the p-toluenesulfonate | crystal form of the undissolved solid (XRPD) ([6]; SGF, FaSSIF and FeSSIF for 2 hours): changed | dependence of solubility on pH ([6]; SGF, FaSSIF, FeSSIF, 37° C.): affected by pH value | crystal form after heating and solvent removal [7]: changed into the crystal form VI
